The subject of data set [1] is human stomach cancer cells (MKN-45). As to the kind of experiment: Experiment 6: pharmacokinetics of Cupid-scFv antibody (48 h before)+^211At-psyche-BR in MKN-45 cancer-bearing mouse models. The data set is classed as in vivo, mice (BALB/cSlc nu/nu). The procedure:
The present experiment used human stomach cancer cells (MKN-45) expressing carcinoembryonic antigen (CEA). 9-week-old male immunodeficient mice (BALB/cSlc nu/nu) were used. MKN-45 cells (1×10^7/0.1 ml) were transplanted into the mice's subcutis on the right shoulder dorsal side to produce cancer-bearing mouse models. The mice were divided into four groups when the tumor volume became a predetermined size (on Day 12 after the transplantation), and the Cupid-scFv antibody was administered 100 μmol/0.1 ml via the caudal vein of each mouse. Forty-eight hours after administration of the Cupid-scFv antibody, […] (about 0.25 MBq/100 ml) was administered via the caudal vein of each mouse. One minute, 1 hour, 6 hours, and 24 hours after administration of the ^211At-psyche-BR, the mice were euthanized by collecting whole blood from the heart of each mouse under isoflurane anesthesia, and tumor tissues and normal tissues/organs were then excised. Normal tissues/organs: skin (lower right limb), muscle (right gastrocnemius muscle), heart, lung, spleen, pancreas, white fat (upper portion of right side testis), testis (both sides), stomach, stomach contents, small intestine (not including contents), large intestine (not including contents), liver, brown fat (interscapular), submandibular gland, thyroid gland (together with trachea), bone (right femur), cerebrum, eyeballs (both sides), bladder, and urine; the remaining residues were divided into three equal parts, and the three equal parts were defined to be residue-1, residue-2, and residue-3. After that, the weights of blood, plasma, urine, tumor, and normal tissues/organs were measured, and the radioactivity thereof was then measured using a γ counter. The amounts of the ^211At-psyche-BR (radioactivity) accumulated in the blood, plasma, urine, tumor, and normal tissues/organs were calculated. That is to say, the rates (% ID/g) of the ^211At-psyche-BR accumulated per unit weight (g) of the blood, plasma, urine, tumor, and normal tissues/organs, in the administered ^211At-psyche-BR were shown. Regarding accumulation of the ^211At-psyche-BR in the thyroid gland, since the weight of the thyroid gland could not be precisely measured, it was shown that the rate (% ID) of the ^211At-psyche-BR accumulated in the thyroid gland in the administered ^211At-psyche-BR.

Data set [2] shares this test system. As to the kind of experiment: Experiment 11: pharmacokinetics (6 h) of Cupid-scFv antibody (24 h before)+^211At-psyche-B in MKN-45 cancer-bearing mouse models. The data set is classed as in vivo, mice (BALB/cSlc nu/nu). Particulars: six hours after administration, tumor on Day 8 after transplantation. The procedure:
The present experiment used human stomach cancer cells (MKN-45) expressing carcinoembryonic antigen (CEA). 9-week-old male immunodeficient mice (BALB/cSlc nu/nu) were used. MKN-45 cells (1×10^7/0.1 ml) were transplanted into the mice's subcutis on the right shoulder dorsal side to produce cancer-bearing mouse models. When the tumor volume became a predetermined size (on Day 8 after the transplantation), the Cupid-scFv antibody was administered 100 μmol/0.1 ml via the caudal vein of each mouse. Twenty-four hours after administration of the Cupid-scFv antibody, ^211At-psyche-B (about 0.30 MBq/100 ml) was administered via the caudal vein of each mouse. […] After that, the weights of blood, plasma, urine, tumor, and normal tissues/organs were measured, and the radioactivity thereof was then measured using a γ counter. The amounts of the ^211At-psyche-B (radioactivity) accumulated in the blood, plasma, urine, tumor, and normal tissues/organs were calculated. […] Regarding accumulation of the ^211At-psyche-B in the thyroid gland, since the weight of the thyroid gland could not be precisely measured, it was shown that the rate (% ID) of the ^211At-psyche-B accumulated in the thyroid gland in the administered ^211At-psyche-B.

As for `N=C1N[C@H]2[C@H](CS[C@H]2CCCCNC(=O)CCCCCC(=O)Nc2cc(NC(=O)CCCCCC(=O)NCCCC[C@@H]3SC[C@@H]4NC(=N)N[C@@H]43)cc(C(=O)NCCOCCOCCNC(=O)c3cccc([211At])c3)c2)N1` [^211At-psyche-BR], in data set [1] (after 1 minute), the “Accumulation in the blood” value stood at 26.4±2.7 % ID/g, the “Accumulation in the kidney” value is on record as 81.7±11.8 % ID/g, the “Accumulation in the liver” value was determined as 31.5±4.3 % ID/g and the “Accumulation in the lung” value turned out to be 9.5±0.4 % ID/g. In data set [1] (after 1 minute), the “Accumulation in the spleen” value came out at 3.4±0.2 % ID/g, the “Accumulation in the tumor” value is reported as 0.5±0.0 % ID/g, the tumor-to-blood ratio was determined as 0.02±0.00 and the tumor-to-muscle ratio turned out to be 1.30±0.06. Further, in data set [1] (after 1 hour), the “Accumulation in the blood” value is recorded as 30.6±3.2 % ID/g, the “Accumulation in the kidney” value is 54.5±4.0 % ID/g, the “Accumulation in the liver” value is 19.8±1.3 % ID/g and the “Accumulation in the lung” value is 12.7±0.6 % ID/g. Further, in data set [1] (after 1 hour), the “Accumulation in the spleen” value is 6.8±0.3 % ID/g, the “Accumulation in the tumor” value stood at 3.2±0.5 % ID/g, the tumor-to-blood ratio was 0.10±0.01 and the tumor-to-muscle ratio stood at 5.13±0.67. In data set [1] (after 6 hours), the “Accumulation in the blood” value is recorded as 22.7±2.7 % ID/g, the “Accumulation in the kidney” value was found to be 15.0±2.3 % ID/g, the “Accumulation in the liver” value came out at 18.7±2.7 % ID/g and the “Accumulation in the lung” value is listed as 7.5±3.3 % ID/g. For the same compound, in data set [1] (after 6 hours), the “Accumulation in the spleen” value turned out to be 9.7±1.0 % ID/g, the “Accumulation in the tumor” value amounted to 9.3±1.4 % ID/g, the tumor-to-blood ratio came out at 0.42±0.11 and the tumor-to-muscle ratio came out at 11.42±1.05. Also, in data set [1] (after 24 h), the “Accumulation in the thyroid gland” value is given as 0.19±0.03 % ID. Moreover, in data set [1] (after 24 hours), the “Accumulation in the blood” value is given as 1.6±1.0 % ID/g, the “Accumulation in the kidney” value was determined as 5.6±1.0%, the “Accumulation in the liver” value is listed as 8.9±1.7% and the “Accumulation in the lung” value was 2.9±0.3%. Also, in data set [1] (after 24 hours), the “Accumulation in the spleen” value amounted to 4.6±1.6%, the “Accumulation in the tumor” value was 7.4±2.3%, the “administered amount excreted (blood)” value is “about 98%” and the tumor-to-blood ratio was 5.39±1.56. In data set [1] (after 24 hours), the tumor-to-muscle ratio turned out to be 27.98±2.34.

As for `N=C1N[C@H]2[C@H](CS[C@H]2CCCCC(=O)NCCCCCC(=O)Nc2cc(NC(=O)CCCCCNC(=O)CCCC[C@@H]3SC[C@@H]4NC(=N)N[C@@H]43)cc(C(=O)NCCOCCOCCNC(=O)c3cccc([211At])c3)c2)N1` [^211At-psyche-B], in data set [2], the “Accumulation in the tumor” value was 25.8±1.5 % ID/g.
